Assay results as given in article PMC8617031, “Development of a BCL-xL and BCL-2 dual degrader with improved anti-leukemic activity,” (Nature Communications, 2021).

System: BCL-xL/PROTAC/VCB ternary complex (HiBit-BCL-xL, HaloTag-VHL)
Assay: NanoBRET intracellular ternary complex formation in 293T cells, BCL-xL
Type: cell-based, human
Details: NanoBRET, 293T cells, 6 h
Procedure, shortened: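 293T cells were transfected with HiBit-BCL-xL or HiBit-BCL-2 plus HaloTag-VHL and incubated overnight with or without HaloTag NanoBRET 618 ligand in 4% FBS Opti-MEM. Serially diluted compounds were applied for 6 h at 37 °C. mBRET ratio from donor emission (450/50 nm) and acceptor emission (610 nm longpass) after Nano-Glo substrate.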

Structure (SMILES)	intracellular ternary complex formation with BCL-xL (in words)
Cc1ncsc1-c1ccc([C@H](C)NC(=O)[C@@H]2C[C@@H](O)CN2C(=O)[C@@H](NC(=O)CCCCC(=O)N2CCN(CC3(C)CCC(c4ccc(Cl)cc4)=C(CN4CCN(c5ccc(C(=O)NS(=O)(=O)c6ccc(N[C@H](CCN7CCOCC7)CSc7ccccc7)c(S(=O)(=O)C(F)(F)F)c6)cc5)CC4)C3)CC2)C(C)(C)C)cc1 (stereo partly shown) [PPC6]	stronger BCL-xL/PROTAC/VHL-EloC-EloB (VCB) ternary complexes
Cc1ncsc1-c1ccc([C@H](C)NC(=O)[C@@H]2C[C@@H](O)CN2C(=O)[C@@H](NC(=O)CCCCCC(=O)N2CCN(CC3(C)CCC(c4ccc(Cl)cc4)=C(CN4CCN(c5ccc(C(=O)NS(=O)(=O)c6ccc(N[C@H](CCN7CCOCC7)CSc7ccccc7)c(S(=O)(=O)C(F)(F)F)c6)cc5)CC4)C3)CC2)C(C)(C)C)cc1 (stereo partly shown) [PPC7]	stronger BCL-xL/PROTAC/VHL-EloC-EloB (VCB) ternary complexes
Cc1ncsc1-c1ccc([C@H](C)NC(=O)[C@@H]2C[C@@H](O)CN2C(=O)[C@@H](NC(=O)CCCCCCC(=O)N2CCN(CC3(C)CCC(c4ccc(Cl)cc4)=C(CN4CCN(c5ccc(C(=O)NS(=O)(=O)c6ccc(N[C@H](CCN7CCOCC7)CSc7ccccc7)c(S(=O)(=O)C(F)(F)F)c6)cc5)CC4)C3)CC2)C(C)(C)C)cc1 (stereo partly shown) [PPC8]	stronger BCL-xL/PROTAC/VHL-EloC-EloB (VCB) ternary complexes
Cc1ncsc1-c1ccc([C@H](C)NC(=O)[C@@H]2C[C@@H](O)CN2C(=O)[C@@H](NC(=O)CCCCCCCC(=O)N2CCN(CC3(C)CCC(c4ccc(Cl)cc4)=C(CN4CCN(c5ccc(C(=O)NS(=O)(=O)c6ccc(N[C@H](CCN7CCOCC7)CSc7ccccc7)c(S(=O)(=O)C(F)(F)F)c6)cc5)CC4)C3)CC2)C(C)(C)C)cc1 (stereo partly shown) [PPC9]	stronger BCL-xL/PROTAC/VHL-EloC-EloB (VCB) ternary complexes
